Reference: patent publication EP3771713A1 (priority 2019, dated 2021)
Entries after “also recorded” stand apart in the source; their conditions may differ.

Columns and labels:
hCB1R = target: T1, hCB1R (Homo sapiens, UniProt P21554); type: binding
T1 construct: expressed in transfected cells; host or cells: CHO cells stably expressing hCB1R

hBChE = hBChE (Homo sapiens, UniProt P06276); test: biochemical; type: biochemical
Aβ42 = Aβ42 (Homo sapiens, UniProt P05067); test: Aβ42 self-aggregation, thioflavin-T fluorescence assay; type: biochemical
[1] = target: hAChE-induced Aβ40 aggregation (Homo sapiens, UniProt P22303); test: biochemical; type: biochemical
HT-22 cells = type: cell-based, murine
[2] = system: murine microglial cell line N9; test: Microglia activation: LPS-activated N9 cells, M1/M2 markers (Griess reaction, western blot); type: cell-based
[3] = system: Aβ25-35-induced learning impairments in mice; conditions: mouse, ip
hAChE = hAChE (Homo sapiens, UniProt P22303); test: biochemical; type: biochemical; conditions: hAChE recombinant expressed
eeAChE = eeAChE (Electrophorus electricus, UniProt O42275); test: biochemical; conditions: eeAChE from electric eel; read-out: IC50 AChE (eeAChE)
hCB2R = target: T2, hCB2R (Homo sapiens, UniProt P34972); type: cell-based
T2 construct: expressed in transfected cells; host or cells: HEK cells stably expressing hCB2R

[4] = N9 cells, 100 ng/mL LPS, 1-5 µM compound, 24 h, M1 marker
[5] = N9 cells, 100 ng/mL LPS, 1-5 µM compound, 24 h, M2 marker

hAChE-induced Aβ40 aggregation, sequence (P22303 32-614): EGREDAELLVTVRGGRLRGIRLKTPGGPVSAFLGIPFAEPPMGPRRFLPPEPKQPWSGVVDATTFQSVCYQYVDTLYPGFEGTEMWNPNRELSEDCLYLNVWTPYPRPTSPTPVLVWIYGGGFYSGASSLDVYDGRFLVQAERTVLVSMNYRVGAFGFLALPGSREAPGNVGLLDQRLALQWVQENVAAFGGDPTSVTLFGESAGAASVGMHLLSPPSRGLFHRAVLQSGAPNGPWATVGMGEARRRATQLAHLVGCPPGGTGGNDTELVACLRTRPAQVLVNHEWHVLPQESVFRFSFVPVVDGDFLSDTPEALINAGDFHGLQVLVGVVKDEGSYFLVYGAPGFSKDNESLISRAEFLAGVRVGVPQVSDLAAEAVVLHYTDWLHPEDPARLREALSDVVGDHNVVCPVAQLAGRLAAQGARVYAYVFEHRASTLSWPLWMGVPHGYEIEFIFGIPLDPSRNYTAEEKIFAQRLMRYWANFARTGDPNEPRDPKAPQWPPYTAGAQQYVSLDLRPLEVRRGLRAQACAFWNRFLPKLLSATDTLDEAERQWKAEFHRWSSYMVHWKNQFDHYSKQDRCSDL
T2 sequence (P34972 whole entry): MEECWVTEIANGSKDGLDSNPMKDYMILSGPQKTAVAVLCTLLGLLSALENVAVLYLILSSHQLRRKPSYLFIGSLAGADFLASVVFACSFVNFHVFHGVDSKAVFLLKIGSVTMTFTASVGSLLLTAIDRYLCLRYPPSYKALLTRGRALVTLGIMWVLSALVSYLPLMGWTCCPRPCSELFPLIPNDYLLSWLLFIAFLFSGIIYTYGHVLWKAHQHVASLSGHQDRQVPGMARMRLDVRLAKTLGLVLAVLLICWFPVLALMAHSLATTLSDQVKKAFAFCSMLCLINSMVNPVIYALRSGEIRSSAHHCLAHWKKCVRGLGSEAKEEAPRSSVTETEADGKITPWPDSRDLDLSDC
Aβ42, sequence (P05067 672-713): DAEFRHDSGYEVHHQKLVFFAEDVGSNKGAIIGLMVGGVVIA
hAChE, sequence (P22303 32-614): as the sequence (P22303 32-614) above
hBChE, sequence (P06276 29-602): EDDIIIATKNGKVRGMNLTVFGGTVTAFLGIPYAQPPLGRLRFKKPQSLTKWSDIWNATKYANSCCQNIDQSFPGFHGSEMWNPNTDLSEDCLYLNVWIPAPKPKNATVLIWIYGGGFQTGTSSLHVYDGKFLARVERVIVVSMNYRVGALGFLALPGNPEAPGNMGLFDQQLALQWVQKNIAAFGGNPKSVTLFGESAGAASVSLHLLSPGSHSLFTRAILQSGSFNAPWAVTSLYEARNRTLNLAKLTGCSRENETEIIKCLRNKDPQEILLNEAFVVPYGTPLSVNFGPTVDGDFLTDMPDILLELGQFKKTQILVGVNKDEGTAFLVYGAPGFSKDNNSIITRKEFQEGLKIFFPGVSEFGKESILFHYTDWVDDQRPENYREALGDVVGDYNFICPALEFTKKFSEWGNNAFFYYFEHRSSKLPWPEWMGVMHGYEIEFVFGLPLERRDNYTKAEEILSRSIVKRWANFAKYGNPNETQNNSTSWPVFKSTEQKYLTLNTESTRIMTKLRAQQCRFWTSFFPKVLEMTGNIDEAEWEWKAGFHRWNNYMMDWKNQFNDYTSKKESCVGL
eeAChE, sequence (O42275 24-633): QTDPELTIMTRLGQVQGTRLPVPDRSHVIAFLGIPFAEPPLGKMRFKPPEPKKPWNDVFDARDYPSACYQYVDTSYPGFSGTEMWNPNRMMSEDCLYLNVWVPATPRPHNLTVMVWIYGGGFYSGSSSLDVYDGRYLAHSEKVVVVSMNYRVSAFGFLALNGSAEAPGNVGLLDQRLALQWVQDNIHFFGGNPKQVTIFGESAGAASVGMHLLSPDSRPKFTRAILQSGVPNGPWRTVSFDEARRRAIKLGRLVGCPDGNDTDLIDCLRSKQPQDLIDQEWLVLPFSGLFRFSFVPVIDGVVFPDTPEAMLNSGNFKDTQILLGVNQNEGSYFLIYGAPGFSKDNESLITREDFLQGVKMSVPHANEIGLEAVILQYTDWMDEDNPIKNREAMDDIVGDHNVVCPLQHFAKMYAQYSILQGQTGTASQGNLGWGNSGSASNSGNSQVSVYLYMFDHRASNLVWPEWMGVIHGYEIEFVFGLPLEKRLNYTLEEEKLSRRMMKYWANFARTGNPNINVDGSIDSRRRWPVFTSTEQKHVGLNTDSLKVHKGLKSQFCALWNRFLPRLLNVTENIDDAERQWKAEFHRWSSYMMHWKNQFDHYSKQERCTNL
T1 sequence (P21554 whole entry): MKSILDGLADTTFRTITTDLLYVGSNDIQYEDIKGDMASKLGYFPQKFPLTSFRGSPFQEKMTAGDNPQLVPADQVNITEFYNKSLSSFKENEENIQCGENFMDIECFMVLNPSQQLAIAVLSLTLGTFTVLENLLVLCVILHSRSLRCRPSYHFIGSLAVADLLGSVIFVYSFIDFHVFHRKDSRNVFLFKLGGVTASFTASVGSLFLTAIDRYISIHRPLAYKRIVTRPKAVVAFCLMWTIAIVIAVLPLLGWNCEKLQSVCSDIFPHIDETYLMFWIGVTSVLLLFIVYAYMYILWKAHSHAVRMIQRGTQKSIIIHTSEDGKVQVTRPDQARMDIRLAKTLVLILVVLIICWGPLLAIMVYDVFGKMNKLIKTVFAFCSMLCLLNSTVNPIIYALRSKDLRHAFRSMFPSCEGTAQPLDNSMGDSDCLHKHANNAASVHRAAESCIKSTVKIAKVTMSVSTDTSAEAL

Q: For `CCOc1ccc(Cc2nc3cc(C(=O)N(CC)CC)ccc3n2CCCCCCNc2c3c(nc4ccccc24)CCCC3)cc1` [compound 3e, 2-(4-Ethoxybenzyl)-N,N-diethyl-1-(6-((1,2,3,4-tetrahydroacridin-9-yl)amino)hexyl)-1H-benzo[d]imidazole-5-carboxamide], which “[^3H]CP 55,940 displ. @10 µM hCB1R” value (hCB1R) is on record?
A: 17%

Q: And the “inhibitory potency towards hBChE compared to tacrine” value (hBChE; compared to tacrine)?
A: increased inhibitory potency

Q: And the IC50 (hBChE; hBChE from human serum, means of at least three determinations, read-out: IC50 hBChE)?
A: 1.9 nM

Q: And the inhibition at 50 µM (Aβ42; 50 µM inhibitor and 50 µM Aβ42, mean ± SEM, read-out: % inhibition Aβ aggregation self-induced)?
A: 81.5 ± 2%

Q: And the “inhibition of Aβ42 self-aggregation (in words)” value (Aβ42; 1/1 ratio with Aβ42)?
A: pronounced inhibition; also recorded: strongly inhibited

Q: What about the “inhibition of AChE-induced Aβ40 aggregation (in words)” value [1] of the same compound?
A: pronounced inhibition; also recorded: significantly reduce

Q: And the inhibition at 100 µM ([1]; [I] = 100 µM, Aβ40/hAChE ratio 100/1, mean ± SEM, read-out: % inhibition Aβ aggregation AChE-induced)?
A: 62.9 ± 5.4%

Q: And the “neuroprotective behavior (in words)” value (HT-22 cells)?
A: low neuroprotective behavior; also recorded: showed neuroprotection

Q: And the immunomodulatory effect ([2]; LPS-activated microglial cells)?
A: immunomodulatory effect

Q: What about the “NO release / nitrite accumulation” value ([2]; N9 cells, 100 ng/mL LPS, 1-5 µM compound, 24 h) of the same compound?
A: reduced; also recorded: strongly reduces

Q: What about the IL1β release [2, 4] of the same compound?
A: significantly decrease; also recorded: strongly reduces

Q: And the iNOS expression [2, 4]?
A: significantly decrease; also recorded: strongly reduces

Q: And the TGFβ2 expression [2, 5]?
A: not reduced; also recorded: no parallel change

Q: And the TREM2 expression [2, 5]?
A: not reduced; also recorded: no parallel change

Q: And the “dose that significantly prevented Aβ25-35-induced learning impairments” value ([3]; in vivo)?
A: 0.3 mg/kg

Q: And the “most effective dose (completely prevented Aβ25-35 impairments in both tests)” value ([3]; in vivo)?
A: 0.3 mg/kg

Q: And the “dose given for the high in vivo efficacy (conclusion)” value [3]?
A: 0.1 mg/kg

Q: And the “pIC50 ± SD AChE (hAChE)” value (hAChE)?
A: 7.1 ± 0.1

Q: And the IC50 (hAChE; read-out: IC50 AChE (hAChE))?
A: 86.1 nM

Q: What about the IC50 (eeAChE) of the same compound?
A: 0.5 nM

Q: What about the MIF gene expression (hCB2R) of the same compound?
A: reduced

Q: What about the STAT-3 gene expression (hCB2R) of the same compound?
A: reduced

Q: What about the “behavior at the hCB2R” value (hCB2R) of the same compound?
A: maintained their agonist behavior
